The supplement of paper PMC11061612

Key:
[1] = compound: Nc1ccn([C@@H]2O[C@H](CO)[C@@H](O)C2(F)F)c(=O)n1 [Gemcitabine]; settings: max 0.3 µM
In short: (§1)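 Cancer cell lines were seeded in 1536-well plates in 7.5 μl DMEM/F12 or RPMI with 10% FBS, held 24 hours at 37°C and 5% CO2, then dosed for 72 hours (final DMSO typically 0.2%). Viability was read by CellTiter-Glo 2.0 luminescence and scaled between blank-well and DMSO-well means. The single-agent IC50 comes from dose responses fitted to a two-parameter logistic curve with a non-linear mixed effects model.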

[2] = compound: COc1cc2ncnc(Nc3ccc(F)c(Cl)c3)c2cc1OCCCN1CCOCC1 [Gefitinib]; settings: max 10 µM
In short: as §1

[3] = compound: O=c1[nH]cc(F)c(=O)[nH]1 [5-Fluorouracil]; settings: max 20 µM
In short: as §1

[4] = compound: C[C@@H](Nc1cc(F)cc(F)c1)c1cc(C(=O)N(C)C)cc2c(=O)cc(N3CCOCC3)oc12 [AZD8186]; settings: max 10 µM
In short: as §1

[5] = compound: CC(C)n1c(=O)n(C)c2cnc3cc(F)c(-c4ccc(OCCCN5CCCCC5)nc4)cc3c21 [AZD1390]; settings: max 0.3 µM
In short: as §1

[6] = compound: CCN(CCO)CCCOc1ccc2c(Nc3cc(CC(=O)Nc4cccc(F)c4)[nH]n3)ncnc2c1 [AZD2811]; settings: max 1 µM
In short: as §1

[7] = compound: CC(=O)O[C@H]1C(=O)[C@@]2(C)[C@H]([C@H](OC(=O)c3ccccc3)[C@]3(O)C[C@H](OC(=O)[C@H](O)[C@@H](NC(=O)c4ccccc4)c4ccccc4)C(C)=C1C3(C)C)[C@]1(OC(C)=O)CO[C@@H]1C[C@@H]2O [Paclitaxel]; settings: max 3 µM
In short: as §1

[8] = compound: CC1=C(C(=CC=C1)Cl)NC(=O)C2=CN=C(S2)NC3=CC(=NC(=N3)C)N4CCN(CC4)CCO [Dasatinib]; settings: max 2 µM
In short: as §1

[9] = compound: C1CN(CCC1(C(=O)N[C@@H](CCO)C2=CC=C(C=C2)Cl)N)C3=NC=NC4=C3C=CN4 [AZD5363]; settings: max 10 µM
In short: as §1

[10] = compound: CC(=O)Nc1cccc(-n2c(=O)n(C3CC3)c(=O)c3c(Nc4ccc(I)cc4F)n(C)c(=O)c(C)c32)c1 [Trametinib]; settings: max 1 µM
In short: as §1

[11] = compound: NC1(c2ccc(-c3nc4ccn5c(=O)[nH]nc5c4cc3-c3ccccc3)cc2)CCC1 [MK-2206]; settings: max 10 µM
In short: as §1

[12] = compound: C[C@@H]1COCCN1C2=NC(=NC(=C2)C3(CC3)[S@](=N)(=O)C)C4=C5C=CNC5=NC=C4 [AZD6738]; settings: max 10 µM
In short: as §1

[13] = compound: Cn1cnc2c(F)c(Nc3ccc(Br)cc3Cl)c(C(=O)NOCCO)cc21 [Selumetinib]; settings: max 10 µM
In short: as §1

[14] = compound: CC1=CN2[C@@H](C1)C=NC3=CC(=C(C=C3C2=O)OC)OCCCCCOC4=C(C=C5C(=C4)N=C[C@@H]6CC(=CN6C5=O)C)OC [SG3199]; settings: max 0.001 µM
In short: as §1

[15] = compound: Cc1nc(-c2cn3c(n2)-c2ccc(-c4cnn(C(C)(C)C(N)=O)c4)cc2OCC3)n(C(C)C)n1 [Taselisib]; settings: max 10 µM
In short: as §1

[16] = compound: COc1nnc2ccc(N3CCC(c4ccc(OCCN5CCN(C)C(=O)[C@H]5C)cc4)CC3)nn12 [AZD5153]; settings: max 1 µM
In short: as §1

[17] = compound: O=C(Nc1ccc2[nH]nc(-c3ccncc3)c2c1)[C@@H]1CCN(CC(=O)N2CCN(c3ccc(-c4ncccn4)cc3)CC2)C1; settings: max 5 µM
In short: as §1

[18] = compound: CN(C)CCCOc1ccc(-c2ccc3ncc4c(c3c2)n(C2CCOCC2)c(=O)n4C)cn1 [AZD0156]; settings: max 3 µM
In short: as §1

[19] = compound: C[C@@H](c1ccc2nccn2c1)n1nnc2ncc(-c3cnn(C)c3)nc21 [Savolitinib]; settings: max 1 µM
In short: as §1

[20] = compound: C[C@@H](Oc1cc(-c2cnn(C3CCNCC3)c2)cnc1N)c1c(Cl)ccc(F)c1Cl [Crizotinib]; settings: max 10 µM
In short: as §1

[21] = compound: CC(=O)c1c(C)c2cnc(Nc3ccc(N4CCNCC4)cn3)nc2n(C2CCCC2)c1=O [Palbociclib]; settings: max 10 µM
In short: as §1

[22] = compound: COc1cccc2c1C(=O)c1c(O)c3c(c(O)c1C2=O)C[C@@](O)(C(=O)CO)C[C@@H]3O[C@H]1C[C@H](N)[C@H](O)[C@H](C)O1 [Doxorubicin]; settings: max 1 µM
In short: as §1

[23] = compound: COc1cc([C@@H]2c3cc4c(cc3[C@@H](O[C@@H]3O[C@@H]5CO[C@@H](C)O[C@H]5[C@H](O)[C@H]3O)[C@H]3COC(=O)[C@H]23)OCO4)cc(OC)c1O [Etoposide]; settings: max 10 µM
In short: as §1

[24] = compound: Cc1c2c(nn1C)CSCc1cc(n(C)n1)CSc1cc(c3ccccc3c1)OCCCc1c(C(=O)O)n(C)c3c-2c(Cl)ccc13 [AZD5991]; settings: max 1 µM
In short: as §1

[25] = compound: CC1(C)CCC(CN2CCN(c3ccc(C(=O)NS(=O)(=O)c4ccc(NCC5CCOCC5)c([N+](=O)[O-])c4)c(Oc4cnc5[nH]ccc5c4)c3)CC2)=C(c2ccc(Cl)cc2)C1 [Venetoclax]; settings: max 1 µM
In short: as §1

[26] = compound: CS(=O)(=O)CCNCc1ccc(-c2ccc3ncnc(Nc4ccc(OCc5cccc(F)c5)c(Cl)c4)c3c2)o1 [Lapatinib]; settings: max 10 µM
In short: as §1

[27] = compound: COc1cc(Nc2ncc3c(n2)-c2ccc(Cl)cc2C(c2c(F)cccc2OC)=NC3)ccc1C(=O)O [Alisertib]; settings: max 10 µM
In short: as §1

[28] = compound: COc1cccc(OCCCN)c1-c1cc(Nc2cnc(C#N)cn2)n[nH]1 [Prexasertib]; settings: max 1 µM
In short: as §1

[29] = compound: O=C(c1cc(Cc2n[nH]c(=O)c3ccccc23)ccc1F)N1CCN(C(=O)C2CC2)CC1 [Olaparib]; settings: max 10 µM
In short: as §1

[30] = compound: N#Cc1cnc(Nc2cc(NC[C@H]3CNCCO3)c(C(F)(F)F)cn2)cn1 [SRA737]; settings: max 10 µM
In short: as §1

[31] = compound: Cc1cc2ncnn2cc1Nc1ncc2c(n1)n(C1CCOCC1)c(=O)n2C [AZD7648]; settings: max 10 µM
In short: as §1

[32] = compound: C=CCn1c(=O)c2cnc(Nc3ccc(N4CCN(C)CC4)cc3)nc2n1-c1cccc(C(C)(C)O)n1 [AZD1775]; settings: max 3 µM
In short: as §1

[33] = compound: C1CC(C1)(C(=O)[O-])C(=O)[O-].N.N.[Pt+2] [Carboplatin]; settings: max 10 µM
In short: as §1

[34] = compound: CCc1c2c(nc3ccc(O)cc13)-c1cc3c(c(=O)n1C2)COC(=O)[C@]3(O)CC [SN-38]; settings: max 0.3 µM
In short: as §1

[35] = compound: CN(CC[C@H](CSC1=CC=CC=C1)NC2=C(C=C(C=C2)S(=O)(=O)NC(=O)C3=CC=C(C=C3)N4CCC(CC4)[C@H](C5=CC=CC=C5C6=CC=C(C=C6)Cl)O)S(=O)(=O)C(F)(F)F)CCO [AZD4320]; settings: max 1 µM
In short: as §1

Cell Line	IC50, cell viability 72 h [1] [nM]	IC50, cell viability 72 h [2] [nM]	IC50, cell viability 72 h [3] [nM]	IC50, cell viability 72 h [4] [nM]	IC50, cell viability 72 h [5] [nM]	IC50, cell viability 72 h [6] [nM]	IC50, cell viability 72 h [7] [nM]	IC50, cell viability 72 h [8] [nM]	IC50, cell viability 72 h [9] [nM]	IC50, cell viability 72 h [10] [nM]	IC50, cell viability 72 h [11] [nM]	IC50, cell viability 72 h [12] [nM]	IC50, cell viability 72 h [13] [nM]	IC50, cell viability 72 h [14] [nM]	IC50, cell viability 72 h [15] [nM]	IC50, cell viability 72 h [16] [nM]	IC50, cell viability 72 h [17] [nM]	IC50, cell viability 72 h [18] [nM]	IC50, cell viability 72 h [19] [nM]	IC50, cell viability 72 h [20] [nM]	IC50, cell viability 72 h [21] [nM]	IC50, cell viability 72 h [22] [nM]	IC50, cell viability 72 h [23] [nM]	IC50, cell viability 72 h [24] [nM]	IC50, cell viability 72 h [25] [nM]	IC50, cell viability 72 h [26] [nM]	IC50, cell viability 72 h [27] [nM]	IC50, cell viability 72 h [28] [nM]	IC50, cell viability 72 h [29] [nM]	IC50, cell viability 72 h [30] [nM]	IC50, cell viability 72 h [31] [nM]	IC50, cell viability 72 h [32] [nM]	IC50, cell viability 72 h [33] [nM]	IC50, cell viability 72 h [34] [nM]	IC50, cell viability 72 h [35] [nM]
K-562 (Chronic Myelogenous Leukemia)	> 300	> 10000	> 20000	> 10000	> 300	> 1000	34.1	22.3	> 10000	> 1000	> 10000	4140	> 10000	> 1	> 10000	> 1000	> 5000	> 3000	> 1000	2110	> 10000	> 1000	> 10000	> 1000	> 1000	> 10000	4680	19.5	> 10000	4120	> 10000	624	> 10000	112	> 1000
GR-ST (B-Lymphoblastic Leukemia)	19.8	> 10000	> 20000	4950	> 300	> 1000	9.98	> 2000	4130	> 1000	2260	1740	> 10000	> 1	874	41.2	> 5000	> 3000	> 1000	2380	3060	684	9020	> 1000	> 1000	5910	> 10000	16.8	> 10000	1750	> 10000	375	> 10000	6.71	> 1000
